Earlier results on 1 molecule are cited in patent US10758505B2, “Therapeutic compositions and methods” (Innovus Pharmaceuticals, Inc., priority 2017, dated 2020).

SMILES strings stand for the structures.

One series has as its target P-glycoprotein (Homo sapiens, UniProt P08183).
In the next series the target is human CYP3A4 (Homo sapiens, UniProt P08684).
Sequence of human CYP3A4 (P08684 whole entry): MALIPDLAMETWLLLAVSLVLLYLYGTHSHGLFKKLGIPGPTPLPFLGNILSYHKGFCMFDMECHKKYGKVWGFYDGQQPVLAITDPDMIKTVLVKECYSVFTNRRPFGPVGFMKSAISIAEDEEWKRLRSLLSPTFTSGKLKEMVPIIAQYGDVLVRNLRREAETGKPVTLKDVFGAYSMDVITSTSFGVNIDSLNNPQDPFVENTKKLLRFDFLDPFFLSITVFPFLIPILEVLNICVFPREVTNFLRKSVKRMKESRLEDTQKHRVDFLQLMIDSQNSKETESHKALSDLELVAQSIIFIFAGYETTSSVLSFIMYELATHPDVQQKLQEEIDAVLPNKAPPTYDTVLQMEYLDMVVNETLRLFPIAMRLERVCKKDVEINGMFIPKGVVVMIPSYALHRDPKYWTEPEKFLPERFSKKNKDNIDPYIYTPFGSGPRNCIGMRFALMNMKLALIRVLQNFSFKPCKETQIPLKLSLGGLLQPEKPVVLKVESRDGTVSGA

Sequence of P-glycoprotein (P08183 whole entry): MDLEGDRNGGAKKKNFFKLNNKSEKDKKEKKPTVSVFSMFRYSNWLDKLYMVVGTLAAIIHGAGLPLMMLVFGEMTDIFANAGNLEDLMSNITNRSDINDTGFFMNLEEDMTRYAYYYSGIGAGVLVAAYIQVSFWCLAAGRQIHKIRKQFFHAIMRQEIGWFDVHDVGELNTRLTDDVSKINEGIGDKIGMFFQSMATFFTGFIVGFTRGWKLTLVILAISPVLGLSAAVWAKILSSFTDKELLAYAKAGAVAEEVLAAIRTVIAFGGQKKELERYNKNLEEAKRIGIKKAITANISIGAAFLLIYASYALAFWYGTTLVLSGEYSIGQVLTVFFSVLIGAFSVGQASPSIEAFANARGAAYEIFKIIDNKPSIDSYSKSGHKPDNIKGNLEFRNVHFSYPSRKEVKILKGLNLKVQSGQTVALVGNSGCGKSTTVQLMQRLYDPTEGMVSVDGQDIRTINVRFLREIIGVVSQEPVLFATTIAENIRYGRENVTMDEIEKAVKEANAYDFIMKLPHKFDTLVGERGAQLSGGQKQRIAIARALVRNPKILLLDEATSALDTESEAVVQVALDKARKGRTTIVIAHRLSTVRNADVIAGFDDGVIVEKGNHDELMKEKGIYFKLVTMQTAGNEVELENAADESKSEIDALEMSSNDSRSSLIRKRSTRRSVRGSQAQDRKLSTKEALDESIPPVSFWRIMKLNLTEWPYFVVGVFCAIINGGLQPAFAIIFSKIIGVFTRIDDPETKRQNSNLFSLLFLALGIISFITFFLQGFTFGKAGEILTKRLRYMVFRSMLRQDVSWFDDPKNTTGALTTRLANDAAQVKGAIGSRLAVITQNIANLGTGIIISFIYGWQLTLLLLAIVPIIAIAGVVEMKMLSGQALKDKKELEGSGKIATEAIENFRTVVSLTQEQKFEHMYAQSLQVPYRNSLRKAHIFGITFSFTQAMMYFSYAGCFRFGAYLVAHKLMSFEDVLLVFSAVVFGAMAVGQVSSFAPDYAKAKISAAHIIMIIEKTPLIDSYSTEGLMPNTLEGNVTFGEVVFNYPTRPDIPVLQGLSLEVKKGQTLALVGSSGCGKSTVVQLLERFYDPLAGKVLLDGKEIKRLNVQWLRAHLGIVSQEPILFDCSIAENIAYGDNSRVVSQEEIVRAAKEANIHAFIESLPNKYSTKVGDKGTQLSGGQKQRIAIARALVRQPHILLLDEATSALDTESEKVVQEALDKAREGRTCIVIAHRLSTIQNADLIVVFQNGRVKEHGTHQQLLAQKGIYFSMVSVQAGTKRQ

In the case of `O=C(/C=C/C=C/c1ccc2c(c1)OCO2)N1CCCCC1` [Bioperine®, (2E,4E)-5-(1,3-benzodioxol-5-yl)-1-(piperidin-1-yl)penta-2,4-dien-1-one], the “inhibition of P-glycoprotein” value at P-glycoprotein was “inhibits”. The “inhibition of human CYP3A4” value on human CYP3A4 is listed as “inhibits”.
